Among the data in the supplement of paper PMC8960247 are relative viability values, retold here.

Structures can show the parent of a compound that is named as a salt. ± gives the standard error.

One test concerns 621-102 (TSC2-deficient). Kind of test: relative viability vs DMSO; higher = less cytotoxic. To be noted: serum: 10% FBS, 72 h.
The subject of the next test is 621-103 (TSC2-rescued). The test is described as above. To be noted: serum: 10% FBS, 72 h.
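Also: immortalized renal angiomyolipoma cells stably carrying empty vector or TSC2, dosed in 384-well plates in DMEM, viability normalized to vehicle-treated wells within each plate.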

As for `CCN1CCCC1CNC(=O)c1cc(S(=O)(=O)CC)c(N)cc1OC` (stereo not drawn) [Amisulpride], the relative viability was 111 ± 3.8% in the test with 621-102 (TSC2-deficient) (0.0001 µM); 100 ± 1.3% in the test on 621-102 (TSC2-deficient) (0.001 µM); 104.3 ± 0.84% in the test with 621-102 (TSC2-deficient) (0.01 µM); 105 ± 3% in the test with 621-102 (TSC2-deficient) (0.1 µM); 107.5 ± 0.4% in the test on 621-102 (TSC2-deficient) (1 µM); 110 ± 1.6% in the test on 621-102 (TSC2-deficient) (10 µM). Besides, the relative viability was 104 ± 1.8% in the test on 621-103 (TSC2-rescued) (0.0001 µM); 105 ± 2.5% with 621-103 (TSC2-rescued) (0.001 µM); 110.7 ± 0.99% in the test on 621-103 (TSC2-rescued) (0.01 µM); 103.5 ± 0.35% in the test with 621-103 (TSC2-rescued) (0.1 µM); 113 ± 4.8% in the test on 621-103 (TSC2-rescued) (1 µM); 114 ± 3.6% in the test on 621-103 (TSC2-rescued) (10 µM).

Turning to `CCOC(=O)C1=C(COCCN)NC(C)=C(C(=O)OC)C1c1ccccc1Cl` (stereo not drawn) [Amlodipine besylate], the relative viability in the test with 621-102 (TSC2-deficient) (0.0001 µM) was found to be 65.2 ± 8.7%; with 621-102 (TSC2-deficient) (0.001 µM) it was 72.3 ± 1.8%; in the test on 621-102 (TSC2-deficient) (0.01 µM), 76.1 ± 6.9%; in the test with 621-102 (TSC2-deficient) (0.1 µM), 71.3 ± 8.8%; in the test with 621-102 (TSC2-deficient) (1 µM), 65.1 ± 9.1%; in the test on 621-102 (TSC2-deficient) (10 µM), 53.6 ± 2.7%. The relative viability worked out at 96.2 ± 2.2% in the test on 621-103 (TSC2-rescued) (0.0001 µM); 91.1 ± 4.7% in the test with 621-103 (TSC2-rescued) (0.001 µM); 99.4 ± 2.6% in the test with 621-103 (TSC2-rescued) (0.01 µM); 102 ± 9% with 621-103 (TSC2-rescued) (0.1 µM); 94.5 ± 5.2% in the test with 621-103 (TSC2-rescued) (1 µM); 57.2 ± 5% with 621-103 (TSC2-rescued) (10 µM).

Consider `CC(C)(C#N)c1cc(Cn2cncn2)cc(C(C)(C)C#N)c1` [Anastrozole (Arimidex)], for which the relative viability with 621-102 (TSC2-deficient) (0.0001 µM) worked out at 125 ± 1.8%; in the test on 621-102 (TSC2-deficient) (0.001 µM), 109 ± 6.2%; with 621-102 (TSC2-deficient) (0.01 µM), 108 ± 3.5%; in the test with 621-102 (TSC2-deficient) (0.1 µM) it was 106 ± 2.2%; in the test on 621-102 (TSC2-deficient) (1 µM), 120 ± 1.5%; with 621-102 (TSC2-deficient) (10 µM) it was 119 ± 4.3%. For the same molecule, the relative viability was determined as 101 ± 1.4% in the test on 621-103 (TSC2-rescued) (0.0001 µM); 104 ± 3.2% with 621-103 (TSC2-rescued) (0.001 µM); 101 ± 1.7% with 621-103 (TSC2-rescued) (0.01 µM); 103.6 ± 0.71% in the test on 621-103 (TSC2-rescued) (0.1 µM); 99.407 ± 0.097% in the test on 621-103 (TSC2-rescued) (1 µM); 99.4 ± 2.6% with 621-103 (TSC2-rescued) (10 µM).

`N#CC1(c2ccc(NC(=O)c3cccnc3NCc3ccncc3)cc2)CCCC1` [Apatinib]: the relative viability was determined as 101 ± 3.1% with 621-102 (TSC2-deficient) (0.0001 µM); 109.9 ± 0.77% with 621-102 (TSC2-deficient) (0.001 µM); 111.8 ± 0.42% in the test on 621-102 (TSC2-deficient) (0.01 µM); 111 ± 4.4% in the test on 621-102 (TSC2-deficient) (0.1 µM); 102 ± 4.9% in the test with 621-102 (TSC2-deficient) (1 µM); 101.34 ± 0.059% in the test on 621-102 (TSC2-deficient) (10 µM). The relative viability with 621-103 (TSC2-rescued) (0.0001 µM) is 111.1 ± 1.1%; in the test on 621-103 (TSC2-rescued) (0.001 µM), 103 ± 3.9%; with 621-103 (TSC2-rescued) (0.01 µM), 110 ± 2.4%; with 621-103 (TSC2-rescued) (0.1 µM), 107 ± 2.4%; in the test with 621-103 (TSC2-rescued) (1 µM) it was 107 ± 7.4%; with 621-103 (TSC2-rescued) (10 µM) it was 103.7 ± 0.61%.

As for `O=c1cc(-c2ccc(O)cc2)oc2cc(O)cc(O)c12` [Apigenin], the relative viability in the test with 621-102 (TSC2-deficient) (0.0001 µM) was found to be 90.7 ± 0.81%; in the test with 621-102 (TSC2-deficient) (0.001 µM), 105 ± 2.6%; with 621-102 (TSC2-deficient) (0.01 µM) it was 110 ± 2.2%; in the test on 621-102 (TSC2-deficient) (0.1 µM) it was 113 ± 5.3%; in the test with 621-102 (TSC2-deficient) (1 µM) it was 111 ± 2.9%; in the test with 621-102 (TSC2-deficient) (10 µM) it was 112 ± 5.7%. Besides, the relative viability in the test with 621-103 (TSC2-rescued) (0.0001 µM) worked out at 112 ± 4.7%; with 621-103 (TSC2-rescued) (0.001 µM), 128 ± 1.4%; in the test with 621-103 (TSC2-rescued) (0.01 µM), 108.9 ± 0.2%; in the test with 621-103 (TSC2-rescued) (0.1 µM), 115 ± 4.3%; in the test on 621-103 (TSC2-rescued) (1 µM) it was 111 ± 4.9%; in the test on 621-103 (TSC2-rescued) (10 µM) it was 125 ± 4%.

Turning to `COc1ccc(-n2nc(C(N)=O)c3c2C(=O)N(c2ccc(N4CCCCC4=O)cc2)CC3)cc1` [Apixaban], the relative viability in the test with 621-102 (TSC2-deficient) (0.0001 µM) is 107.9 ± 0.95%; in the test on 621-102 (TSC2-deficient) (0.001 µM), 121 ± 0.2%; with 621-102 (TSC2-deficient) (0.01 µM), 112 ± 4.2%; in the test on 621-102 (TSC2-deficient) (0.1 µM) it was 108 ± 3.1%; in the test with 621-102 (TSC2-deficient) (1 µM) it was 91.79 ± 0.34%; in the test on 621-102 (TSC2-deficient) (10 µM) it was 111 ± 2.4%. The relative viability with 621-103 (TSC2-rescued) (0.0001 µM) stood at 117 ± 4.5%; with 621-103 (TSC2-rescued) (0.001 µM) it was 116.3 ± 0.34%; in the test on 621-103 (TSC2-rescued) (0.01 µM), 115 ± 1.5%; with 621-103 (TSC2-rescued) (0.1 µM), 110 ± 3.2%; in the test on 621-103 (TSC2-rescued) (1 µM), 104 ± 3.3%; in the test with 621-103 (TSC2-rescued) (10 µM), 105 ± 4.6%.

Regarding `COc1cc(OC)c(OC)cc1C=O` [Asaraldehyde], the relative viability in the test on 621-102 (TSC2-deficient) (0.0001 µM) worked out at 112 ± 3.5%; in the test with 621-102 (TSC2-deficient) (0.001 µM), 116.4 ± 0.26%; with 621-102 (TSC2-deficient) (0.01 µM), 109.6 ± 0.37%; with 621-102 (TSC2-deficient) (0.1 µM), 96.2 ± 1.4%; in the test on 621-102 (TSC2-deficient) (1 µM), 113.4 ± 0.62%; in the test on 621-102 (TSC2-deficient) (10 µM), 92.3 ± 1.9%. Moreover, the relative viability was found to be 101 ± 2% in the test on 621-103 (TSC2-rescued) (0.0001 µM); 103 ± 2% in the test with 621-103 (TSC2-rescued) (0.001 µM); 94.8 ± 1.3% with 621-103 (TSC2-rescued) (0.01 µM); 99.98 ± 0.77% in the test on 621-103 (TSC2-rescued) (0.1 µM); 102.5 ± 0.13% in the test on 621-103 (TSC2-rescued) (1 µM); 96.06 ± 0.3% with 621-103 (TSC2-rescued) (10 µM).

As to `CN1CC2c3ccccc3Oc3ccc(Cl)cc3C2C1` (stereo not drawn) [Asenapine maleate], the relative viability in the test with 621-102 (TSC2-deficient) (0.0001 µM) turned out to be 110 ± 1.5%; in the test on 621-102 (TSC2-deficient) (0.001 µM), 105.4 ± 0.74%; with 621-102 (TSC2-deficient) (0.01 µM), 106.4 ± 0.12%; with 621-102 (TSC2-deficient) (0.1 µM), 105 ± 5.3%; with 621-102 (TSC2-deficient) (1 µM), 110 ± 3.4%; in the test on 621-102 (TSC2-deficient) (10 µM), 89.34 ± 0.58%. The relative viability in the test with 621-103 (TSC2-rescued) (0.0001 µM) was 110 ± 0.8%; in the test on 621-103 (TSC2-rescued) (0.001 µM) it was 113 ± 3.3%; with 621-103 (TSC2-rescued) (0.01 µM), 110.6 ± 0.71%; in the test with 621-103 (TSC2-rescued) (0.1 µM), 112 ± 5%; in the test with 621-103 (TSC2-rescued) (1 µM), 103 ± 3.5%; with 621-103 (TSC2-rescued) (10 µM), 88.47 ± 0.57%.

Consider `CN1[C@@H]2CC[C@H]1C[C@@H](OC(=O)C(CO)c1ccccc1)C2` (stereo partly drawn) [Atropine sulfate monohydrate], for which the relative viability in the test on 621-102 (TSC2-deficient) (0.0001 µM) turned out to be 64.6 ± 5.9%; in the test with 621-102 (TSC2-deficient) (0.001 µM), 79 ± 1.7%; in the test on 621-102 (TSC2-deficient) (0.01 µM), 83.3 ± 5.4%; in the test on 621-102 (TSC2-deficient) (0.1 µM) it was 79.6 ± 6.8%; in the test on 621-102 (TSC2-deficient) (1 µM), 70.8 ± 5.3%; in the test with 621-102 (TSC2-deficient) (10 µM) it was 63.6 ± 6.5%. In addition, the relative viability in the test on 621-103 (TSC2-rescued) (0.0001 µM) was 80.5 ± 7%; with 621-103 (TSC2-rescued) (0.001 µM), 92.1 ± 8.5%; in the test with 621-103 (TSC2-rescued) (0.01 µM), 105 ± 6.5%; with 621-103 (TSC2-rescued) (0.1 µM), 97.9 ± 6.4%; with 621-103 (TSC2-rescued) (1 µM), 89.9 ± 3.7%; with 621-103 (TSC2-rescued) (10 µM), 80.3 ± 5%.
